Literature values as cited in patent US8920835B2, “Paliperidone double-layered osmotic pump controlled release tablet and preparation method thereof” (Shanghai Institute of Materia Medica, Chinese Academy of …, priority 2009, dated 2014).

Assays:
[1] = in vivo

apparent volume of distribution [1]: 487 L | half-life of the terminal elimination phase [1]: about 23 h | plasma protein binding rate: 74%
SMILES: Cc1nc2n(c(=O)c1CCN1CCC(c3noc4cc(F)ccc34)CC1)CCCC2O (stereo not drawn) [Paliperidone]
